This note sets out measurements from article PMC3062530, “A Novel Mechanism of Programmed Cell Death in Bacteria by Toxin–Antitoxin Systems Corrupts Peptidoglycan Synthesis” (PLoS Biology, 2011).

Assay [1] has as its target T1, MurA (Escherichia coli, UniProt P0A749).
T1 construct: purified enzyme
The assay is described as follows: coupled phosphate-release fluorescence assay (7-methylguanosine / purine nucleoside phosphorylase), global fit. The class given is biochemical. Particulars: competitive with UNAG; 1 mM phosphoenolpyruvate, pH 7.5, 50 mM NaCl.

The target in assay [2] is T1, MurA. The description is as above. Format: biochemical. Conditions: 1 mM phosphoenolpyruvate, pH 7.5, 50 mM NaCl; global fit with UNAG-3P inhibition.

T1 sequence (P0A749 whole entry): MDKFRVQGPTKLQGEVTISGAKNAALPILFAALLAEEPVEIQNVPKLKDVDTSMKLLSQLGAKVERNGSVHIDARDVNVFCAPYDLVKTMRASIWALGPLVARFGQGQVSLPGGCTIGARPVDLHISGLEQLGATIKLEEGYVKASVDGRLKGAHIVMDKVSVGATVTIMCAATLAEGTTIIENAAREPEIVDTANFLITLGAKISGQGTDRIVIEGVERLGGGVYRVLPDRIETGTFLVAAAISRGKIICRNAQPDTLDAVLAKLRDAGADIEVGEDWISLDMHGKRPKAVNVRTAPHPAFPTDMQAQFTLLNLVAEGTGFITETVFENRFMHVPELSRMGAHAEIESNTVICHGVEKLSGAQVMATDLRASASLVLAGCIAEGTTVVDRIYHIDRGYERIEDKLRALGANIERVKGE

For the compound `CC(=O)N[C@H]1[C@@H](OP(=O)(O)OP(=O)(O)OC[C@H]2O[C@@H](n3ccc(=O)[nH]c3=O)[C@H](O)[C@@H]2O)O[C@H](CO)[C@@H](O)[C@@H]1OP(=O)(O)O` [UNAG-3P], the Ki in assay [1] worked out at 7 µM.
Take `CC(=O)N[C@H]1[C@@H](OP(=O)(O)OP(=O)(O)OC[C@H]2O[C@@H](n3ccc(=O)[nH]c3=O)[C@H](O)[C@@H]2O)O[C@H](CO)[C@@H](O)[C@@H]1O` [UNAG]: the Km in assay [2] amounted to 15 µM.
